The source of these data is US20060177474A1, “Agricultural and horticultural poison bait preparation” (priority 2005, published 2006).

In general, melting point refers to the temperature of the solid-liquid transition. On to `Cc1cc(C(F)(C(F)(F)F)C(F)(F)F)ccc1NC(=O)c1cccc(Br)c1C(=O)NC(C)CS(C)(=O)=O` (stereo not shown), for which the melting point fell in the range of 153 to 155 °C.
In turn, `Cc1cc(C(F)(C(F)(F)F)C(F)(F)F)ccc1N(C(=O)c1c(I)cccc1C(N)=O)C(C)CS(C)(=O)=O` (stereo not shown) [compound 27, 3-iodo-N′-{2-methyl-4-[1,2,2,2-tetrafluoro-1-(trifluoromethyl)ethyl]phenyl}-N^2-(1-methyl-2-methylsulfonylethyl)phthalamide] had a melting point of 82 °C.
Compound `Cc1cc(C(F)(C(F)(F)F)C(F)(F)F)ccc1NC(=O)c1cccc(I)c1C(=O)NC(C)C[S+](C)[O-]` (stereo not shown) [compound 28, 3-iodo-N^1-{2-methyl-4-[1,2,2,2-tetrafluoro-1-(trifluoromethyl)ethyl]phenyl}-N^2-(1-methyl-2-methylsulfinylethyl)phthalamide] gave a melting point of 134 °C.
The figure for `Cc1cc(C(F)(C(F)(F)F)C(F)(F)F)ccc1N(C(=O)c1cccc(Cl)c1C(N)=O)C(C)CS(C)(=O)=O` (stereo not shown) [compound 37, 3-chloro-N^1-{2-methyl-4-[1,2,2,2-tetrafluoro-1-(trifluoromethyl)ethyl]phenyl}-N^1-(1-methyl-2-methylsulfonylethyl)phthalamide] is 155 to 156 °C.
